Measurements: article PMC3693772, “Protein expression, biochemical pharmacology of signal transduction, and relation to intraocular pressure modulation by bradykinin B2 receptors in ciliary muscle” (Molecular Vision, 2013)
Several values for one entry are separate records, joined by “and”; a condition that tells them apart may be missing. Equal entries are not always repeated. Entries after “also recorded” stand apart in the source; their conditions may differ. Where two headings read alike, the source gives them in different places.

Tests used:
[1] = test system: primary h-CM cells; assay type: cell-based, human
Method: (§4) Measurement of prostaglandins in human ciliary muscle and Chinese hamster ovary cells expressing B2 receptors
(§5) This involved stimulating h-CM cells and CHO-B2 cells with various concentrations of test peptides and measuring the release of various PGs in the extracellular medium. The concentration-dependent effects of these peptides on total PGs, and specifically PGE2, PGF2α, and PGD2 release, were studied. Cells were grown as a monolayer in a 24-well plate (precoated with fibronectin) to confluence and subsequently serum-starved overnight before the experiment. On the day of the experiment, just before the drug was added, the wells were aspirated completely, and 990 µl basal medium and 10 µl 100× series of concentrations of the different peptide agonists were added to achieve the desired final concentrations of each compound (e.g., 0.1 nM to 10 µM). […] At the end of the incubation period, the cellular supernatants were collected and stored at −80 °C or used immediately to determine the PG content. Cell supernatants were tested for total PG levels and sub-species of PGs (PGE2, PGF2α, and PGD2) using specific competitive enzyme immunoassays (Cayman Chemical Co., Ann Arbor, MI) as directed in the manufacturer’s recommended protocols using the supplied standards and reagents. The limits of detection for various PGs were as follows: total PGs=29 pg/ml; PGE2=15 pg/ml; PGF2α=9 pg/ml; PGD2=200 pg/ml.

[2] = test system: CHO-B2 cells (human cloned B2 receptor); assay type: cell-based, Chinese hamster ovary cells
Method: as §4, §5

[3] = test system: h-CM cells; assay type: cell-based, human; details: 1 h at 37 °C; enzyme immunoassay; mean ± SEM, 3 to 6 experiments; read-out: PGF2α production in h-CM cells (EC50)
Method: as §4, §5

[4] = test system: h-CM cells; experiment: PGD2 production in h-CM cells; assay type: cell-based, human; details: with or without BK; limit of detection PGD2=200 pg/ml
Method: as §5

[5] = test system: h-CM cells; experiment: Nitric oxide production in h-CM cells; assay type: cell-based, human; details: BK 0.1 and 1 µM; data not shown
Description: Measurement of nitric oxide production
In certain cell types, BK elevates intracellular levels of nitric oxide (NO), which in turn causes the generation of cGMP via the soluble guanylate cyclase in the cell cytosol. In the present studies, we determined whether the B2 receptors in h-CM cells were coupled to NO production using a specific kit (Promega Corp., Madison, WI) and according to the manufacturer’s instructions.

[6] = test system: ERK1/2 phosphorylation, h-CM cells; experiment: ERK1/2 phosphorylation in h-CM cells (HTRF); assay type: cell-based, human; details: 100 nM
Method: (§1) Measurement of extracellular signal-regulated kinase-1/2 phosphorylation and pro-matrix metalloproteinase production
In the current assay, an homogeneous-time-resolved fluorescence (HTRF) assay (CisBio; Bedford, MA) was used. The HTRF assay is based on a sandwich immunoassay using an antiphospho-ERK1/2 antibody labeled with D2 and an anti-ERK1/2 antibody labeled with Eu^3+-Cryptate. In brief, h-CM cells (passage 7) were cultured in 96-well half-area white plates and incubated overnight, at 37 °C in CO2 atmosphere. […] Lysis buffer provided in the HTRF kit was used to lyse the cells at 23 °C with shaking for 30 min after the agonist treatment. HTRF conjugates containing phospho-ERK1/2 antibodies were then added to the lysates and incubated for an additional 2 h at 23 °C. The fluorescence signal was recorded using a Tecan M1000 fluorescence plate reader ([…]) at 620 nm for the donor and 665 nm for the acceptor.

[7] = test system: ERK1/2 phosphorylation, CHO-B2 cells; experiment: ERK1/2 phosphorylation in CHO-B2 cells (HTRF); assay type: cell-based, Chinese hamster ovary cells, human cloned B2 receptor; details: high basal background
[8] = test system: pro-MMP-1, h-CM cells; experiment: pro-MMP-1 release from h-CM cells; assay type: cell-based, human; details: BK 10 nM to 1 µM, 24 h at 37 °C; n=6
Method: as §1
(§2) The release of pro-MMP-1/2/3 in the extracellular medium of h-CM cells exposed to kinin’s, for 24 h at 37 °C [29, 30] was studied next. Thus, h-CM cells isolated from multiple human donor eyes were cultured as described above and then serum-starved for 24 h prior to the addition of any test compound. Cells were incubated with the vehicle or test compound for 24 hours at 37 °C after which the medium was collected and concentrated ten-fold using Centricon concentrators (Millipore Corp., Bellireca, MA). Equal volumes of this concentrate were loaded on 10% SDS-polyacrylamide gels (SDS-PAGE) and the proteins separated and transferred to nitrocellulose membranes. The membranes were then blocked with 5% non-fat dry milk (Bio-Rad Laboratories, Hercules, CA) followed by incubation with antibodies to pro-MMP-1, pro-MMP-2, or pro-MMP-3 for 12 hours at 4 °C with gentle shaking. After washing, these membranes were incubated with appropriate secondary antibodies (HRP-conjugated; dilution 1:3000) for 1 hour at 20 °C. […] For chemiluminescent detection, the membranes were treated with enhanced chemiluminescent reagent (Amersham Pharmacia, Piscataway, NJ) and the signal was quantified using a Bio-Rad Versadoc imaging system (Bio-Rad Laboratories, Hercules, CA).

[9] = test system: pro-MMP-2, h-CM cells; experiment: pro-MMP-2 release from h-CM cells; assay type: cell-based, human; details: BK 10 nM to 1 µM, 24 h at 37 °C; n=6
Method: as §1, §2

[10] = test system: pro-MMP-3, h-CM cells; experiment: pro-MMP-3 release from h-CM cells; assay type: cell-based, human; details: BK 10 nM to 1 µM, 24 h at 37 °C; n=5
Method: as §1, §2

[11] = cited from earlier work
Description: (§3) Despite the presence of the kallikrein/kinin enzyme and receptor system in the h-CM tissue and cells, with B2-receptor immunoreactivity also found in the cynomolgus monkey CM (Figure 2B), the physiologic roles of BK and its receptors in this tissue and cells remain to be elucidated. Indeed, there are conflicting reports in the literature regarding the functions and involvement of BK in modulating IOP in various animal models.

[12] = test system: albino rabbits; details: topical dosing, ref [8]; cited from earlier work
Description: as §3

[13] = test system: cynomolgus monkey eyes; details: intracameral, ref [12], cited from earlier work
Description: as §3

[14] = test system: isolated perfused bovine eyes; details: ref [16]; cited from earlier work
Description: as §3

[15] = test system: isolated perfused human and bovine anterior eye segments; details: ref [15]; cited from earlier work
Description: as §3

[16] = test system: B2 subtype; design: method as in PMID 1313585; details: ref [1]; cited from earlier work
[17] = test system: certain endothelial and neuronal cells; details: ref [3],[28]; cited from earlier work
[18] = test system: human TM cells; details: ref [33]; cited from earlier work
[19] = intracameral injection, ref [10],[14]

## H-RPPGFSPFR-OH [BK]
[1]; 1 h at 37 °C, enzyme immunoassay, mean ± SEM, 3 to 6 experiments, read-out: Total PGs production in h-CM cells (EC50)
  EC50: 8.6 ± 2.4 nM
[1]; BK 100 nM (0.1 µM) to 10 µM, n=8
  BK-induced total PGs production/secretion, h-CM cells: 393.3 ± 24.2 pg/mL and 393.3 pg/mL
[1]; BK 1 µM, Figure 6A, single experiment
  Total PG secretion above basal levels: substantially increased the PGs secreted above the basal levels
[2]; 1 h at 37 °C, enzyme immunoassay, mean ± SEM, 3 to 6 experiments, read-out: Total PGs production in CHO-B2 cells (EC50)
  EC50: 0.0263 ± 0.0066 nM
[2]; n=6
  BK-induced total PGs production/secretion, CHO-B2 cells: 913.6 ± 47.6 pg/mL and 913.6 pg/mL
[2]; relative to basal levels
  Elevation in extracellular PGs, CHO-B2 cells: 4.9 fold
[3]
  EC50: 15.9 ± 9.2 nM
[4]
  PGD2 release in h-CM cells: no PGD2 was detected
[5]
  Effect on NO levels: failed to have any effect on NO levels; also recorded: failed to do so in h-CM cells
[6]
  Increase in ERK1/2 phosphorylation (abstract): twofold
[7]
  ERK1/2 phosphorylation response in CHO-B2 cells: did not obtain a meaningful response
[8]
  pro-MMP-1 release vs basal level: 3.12±0.46 fold
[9]
  pro-MMP-2 release vs basal level: 1.67±0.25 fold
[10]
  pro-MMP-3 release vs basal level: 1.41±0.09 fold
[11]; [19]
  IOP effect: raised IOP
  Pupil effect: caused intense miosis
[11]; intravenous infusion, ref [9]
  IOP effect: lowered IOP
[11]; ref [11]
  Aqueous humor inflow and outflow: increased aqueous humor inflow and outflow
[12]
  IOP effect: lowered IOP
[13]; no ciliary muscle retrodisplacement
  Aqueous humor outflow: no effect on aqueous humor outflow
[13]; with ciliary muscle retrodisplacement
  Aqueous humor outflow: decreased outflow
[14]
  Outflow: apparent increase in outflow
[15]
  Outflow facility: decreased outflow facility
[16]
  Affinity for B2 subtype: high affinity
[17]
  Production of NO and cGMP: can elicit production of NO and cGMP
[18]
  Production of PGs in human TM cells: produced various PGs
